The target in one data set is T1, CYP2A13 (Homo sapiens, UniProt Q16696).
T1 construct: truncation of the non-catalytic N-terminal transmembrane helix and addition of a C-terminal 4× histidine tag; 4xHis (C); made in house; host or cells: E. coli
T1 sequence (Q16696 with tags, fused parts or gaps limits assumed): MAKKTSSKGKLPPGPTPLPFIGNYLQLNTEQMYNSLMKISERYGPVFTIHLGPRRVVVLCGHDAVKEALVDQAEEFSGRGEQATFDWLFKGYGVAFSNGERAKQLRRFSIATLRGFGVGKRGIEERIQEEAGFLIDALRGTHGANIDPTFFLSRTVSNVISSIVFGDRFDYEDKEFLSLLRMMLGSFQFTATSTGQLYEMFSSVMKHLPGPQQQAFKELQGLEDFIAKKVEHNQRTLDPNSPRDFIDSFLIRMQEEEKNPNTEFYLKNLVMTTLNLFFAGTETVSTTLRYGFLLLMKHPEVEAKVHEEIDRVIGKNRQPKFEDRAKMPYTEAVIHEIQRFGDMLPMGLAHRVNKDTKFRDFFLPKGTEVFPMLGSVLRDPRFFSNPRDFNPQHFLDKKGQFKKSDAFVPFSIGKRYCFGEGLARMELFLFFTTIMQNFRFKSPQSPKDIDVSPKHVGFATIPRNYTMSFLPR
The experiment in a line: Spectral shift ligand binding titration (cuvette method) with purified CYP2A13dH. The note with it: for Selectivity 2A6 Kd/2A13 Kd: (CYP2A6 Kd)/(CYP2A13 Kd), higher numbers are more selective. The text has this: (§1) To date, virtually all attempts to characterize full-length mammalian cytochromes P450 have been restricted by the production of only small (nanomolar) amounts of protein. However, truncation of the non-catalytic N-terminal transmembrane helix and addition of a C-terminal 4× histidine tag allow us to recombinantly produce tens of milligrams of highly purified modified CYP2A13 and CYP2A6 proteins per liter of E. coli culture. These engineered versions of the proteins (CYP2A13dH and CYP2A6dH are not shown) are fully functional in both binding ligands and metabolism of substrates. Protein expression in E. coli is initiated with the addition of IPTG to media supplemented with the heme precursor aminolevulinic acid. After 48-72 hours this expression system yields approximately 500-1300 nmol (27-71 mg) of CYP2A13dH or CYP2A6dH per liter of bacterial culture. Briefly, P450 proteins are liberated from E, coli membranes using a specialized detergent and high salt conditions and subsequently purified using metal-affinity and carboxymethyl-sepharose (CM-sepharose) affinity chromatography. Overall purification yield is up to 14 mg of highly purified protein per liter of E. coli culture.
(§2) Cytochrome P4502A13dH was expressed and purified as previously described (J. Biol. Chem. (2007), 282(23)17306-17313). Briefly, CYP2A13 was solubilized from the membrane using 4.8 mM Cymal-5 detergent (Anatrace, Maumee, Ohio) and 0.3M NaCl followed by ultracentrifugation at 30,000 rpm for 60 minutes. The solubilized protein was applied to Ni^2+-agarose resin (Qiagen, Valencia, Calif.) and after extensive washing with Buffer A (0.1M potassium phosphate, pH 7.4, 20% glycerol, 0.2M sodium chloride, 4.8 mM cymal, 8 mM histidine), the protein was eluted using Buffer B (Buffer A containing 2 mM EDTA and 80 mM histidine). The fractions containing protein with absorbance at 415 nm were pooled, diluted 5-fold with Buffer C (5 mM potassium phosphate, pH 7.4, 20% glycerol, 4.8 mM Cymal-5), and loaded onto HiTrap CM-FF column. The column was washed extensively with Buffer C without the detergent. Purified CYP2A13 was eluted using Buffer C with 50 mM potassium phosphate and 500 mM NaCl. An average yield of 14 mgs of CYP2A13 was obtained per liter of E. coli culture, Cytochrome P4502A6dH was similarly prepared.
(§3) The UV/visible spectra of purified CYP2A13dH and CYP2A6dH have a Soret peak at 418 nm, indicative of a low-spin, six-coordinate configuration of the heme iron bound to an active site water molecule (FIG. 1A). When ligands bind in the active site they frequently displace the water from the iron, resulting in a shift to five-coordinate, high spin iron with a maximal absorbance 395 nm. For cytochrome P450 enzymes, one often records the spectrum shift that occurs as protein is titrated with ligand to determine ligand affinity (kd values) (FIG. 1B).
(§4) The compounds that induced spectral shifts close to that of the positive control (PEITC) were validated in the spectral shift assay using the low throughput cuvette method. CYP2A13 protein samples were diluted to a concentration of 1 μM in 100 mM potassium phosphate buffer (pH 7.4) and were divided equally between reference and sample 1 mL quartz cuvettes. Concentrated compound stocks were prepared in 100% DMSO and the sample baseline was taken from 300-500 nm before beginning the titration. Substrate was added to the sample cuvette, mixed, and allowed to equilibrate for 2 minutes. An equal amount of ethanol was added to the reference cuvette for every addition of compound stock to the sample. The total amount of ethanol was kept less than 2% for each titration. After each coumarin addition, difference spectra were recorded from 300-500 nm and the change maximum (˜420 nm) to the minimum (˜385 nm) was determined. Graphpad Prism 4 (Graphpad Software, San Diego, Calif.) was used to determine the Ks and ΔAmax with nonlinear least-squares regression fitting to the equation: […]

For a further data set, the target named is T2, CYP2A6 (Homo sapiens, UniProt P11509).
T2 construct: truncation of the non-catalytic N-terminal transmembrane helix and addition of a C-terminal 4× histidine tag; 4xHis (C); made in house; host or cells: E. coli
T2 sequence (P11509 with tags, fused parts or gaps limits assumed): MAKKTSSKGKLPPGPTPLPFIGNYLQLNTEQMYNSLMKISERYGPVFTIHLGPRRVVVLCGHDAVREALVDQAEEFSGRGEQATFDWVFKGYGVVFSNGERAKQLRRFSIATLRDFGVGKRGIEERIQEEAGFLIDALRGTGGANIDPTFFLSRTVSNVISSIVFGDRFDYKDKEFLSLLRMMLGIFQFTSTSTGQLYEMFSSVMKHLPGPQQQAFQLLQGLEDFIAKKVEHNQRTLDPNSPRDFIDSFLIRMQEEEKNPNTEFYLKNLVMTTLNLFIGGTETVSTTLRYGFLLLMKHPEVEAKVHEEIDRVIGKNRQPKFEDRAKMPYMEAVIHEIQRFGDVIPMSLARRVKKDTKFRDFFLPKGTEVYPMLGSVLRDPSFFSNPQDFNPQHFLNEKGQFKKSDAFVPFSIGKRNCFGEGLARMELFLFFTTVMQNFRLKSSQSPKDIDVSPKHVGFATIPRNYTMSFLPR
The experiment in a line: Spectral shift ligand binding titration with purified CYP2A6dH. The note with it: for Kd / 2A6 Av. Kd: Table 1, average Kd; for Kd: read-out: 2A6 Av. Kd; for binding to CYP2A6 in titration / spectral shift with CYP2A6: result in words.
From the text: as §1, §2, §3, §4

Setting [1] is: Table 1, average Kd, read-out: 2A13 Av. Kd.
The mark [2] stands for this setting: multiple titrations, read-out: average Kd for CYP2A13.
The mark [3] stands for this setting: initial characterisation of the hits, read-out: initial Kd values, CYP2A13.

Several values for one entry are separate records, joined by “and”; a condition that tells them apart may be missing. Identical values can stand only once. Counter-ions that a name gives are not always drawn. Like-named read-outs stand apart in the source and are kept apart here. Where only a bound is given, the exact number is not on record here.

In general, Kd refers to a measure of binding affinity in units of concentration.

On to `Clc1ccc(CN2CCOCC2)c(Cl)c1` [Compound 9, 4-(2,4-dichlorobenzyl)morpholine], for which the “Selectivity 2A6 Kd/2A13 Kd” value at CYP2A13 came out at 5.66. For the same compound, the Kd was determined as 35 µM at CYP2A13 (setting [1]) and 198 µM on CYP2A6.
Take “4-(2,3-dichlorobenzyl)-1,6-dimethylmorpholine [Compound 10]”: the “Selectivity 2A6 Kd/2A13 Kd” value on CYP2A13 is listed as 12.9. In addition, the Kd on CYP2A13 (setting [1]) is 37.7 µM; at CYP2A6 it was over 486 µM.
Turning to `Fc1cccc(Cl)c1CN1CCOCC1` [Compound 2, 4-(2-chloro-6-fluorobenzyl)morpholine], the “Selectivity 2A6 Kd/2A13 Kd” value on CYP2A13 is given as “high”. The Kd at CYP2A13 (setting [2]) was ~5.8 µM and 5.8 µM. Further, at CYP2A6, the “2A6 Av. Kd” value is recorded as “No binding”, the “binding to CYP2A6 in titration” value is given as “no binding” and the “spectral shift with CYP2A6” value is given as “absolutely no spectral shift”.
For `Clc1ccccc1CN1CCSCC1` [Compound 6, 4-(2-chlorobenzyl)thiomorpholine], on CYP2A13, the “Selectivity 2A6 Kd/2A13 Kd” value turned out to be 15.5. Besides, the Kd was determined as 10 µM on CYP2A13 (setting [1]) and 155 µM at CYP2A6.
Take `Clc1cccc(Cl)c1CN1CCOCC1` [Compound 8, 4-(2,6-dichlorobenzyl)morpholine]: on CYP2A13, the “Selectivity 2A6 Kd/2A13 Kd” value came to 291. Further, the equilibrium dissociation constant (Kd) on CYP2A13 (setting [1]) amounted to 1.9 µM; at CYP2A6 it was 553 µM.
As to `Fc1ccccc1CN1CCOCC1` [Compound 5, 4-(2-fluorobenzyl)morpholine], the “Selectivity 2A6 Kd/2A13 Kd” value at CYP2A13 was “high”. The dissociation constant Kd at CYP2A13 (setting [1]) is 72.5 µM. The “2A6 Av. Kd” value on CYP2A6 is reported as “No binding”.
Take `C1CN(C2C3CC4CC(C3)CC2C4)CCO1` (centres unmarked) [Compound 31, 4-(2-adamantyl)morpholine hydrochloride]: the Kd at CYP2A13 (Table 2, unit inferred, read-out: 2A13 Kd) turned out to be 28.8 µM.
Take `Cc1ccccc1CN1CCOCC1` [Compound 3, 4-(2-methylbenzyl)morpholine]: the “Selectivity 2A6 Kd/2A13 Kd” value at CYP2A13 is “high”. The Kd on CYP2A13 (setting [1]) came to 19.3 µM; on CYP2A13 (setting [3]), 4 µM; on CYP2A13 (setting [2]), 19.3 µM; on CYP2A13 (text b152, unit inferred, multiple titrations, read-out: average Kd) it was 19.3 µM. The “2A6 Av. Kd” value on CYP2A6 is reported as “No binding”. Moreover, the “binding to CYP2A6 in titration” value on CYP2A6 was “no substantially binding”. At CYP2A6, the “spectral shift with CYP2A6” value is “no spectral shift”.
Consider `Clc1ccccc1CN1CCOCC1` [Compound 1, 4-(2-chlorobenzyl)morpholine], for which, on CYP2A13, the “Selectivity 2A6 Kd/2A13 Kd” value is reported as “high”. For the same compound, at CYP2A13 (setting [3]), the Kd turned out to be 1.8 µM. On CYP2A13 (setting [2]), the dissociation constant Kd stood at 7.3 µM. Moreover, on CYP2A6, the “2A6 Av. Kd” value is listed as “No binding”, the “binding to CYP2A6 in titration” value was “no substantially binding” and the “spectral shift with CYP2A6” value is listed as “no spectral shift”.
As to `Brc1ccccc1CN1CCOCC1` [Compound 4, 4-(2-bromobenzyl)morpholine], the “Selectivity 2A6 Kd/2A13 Kd” value on CYP2A13 is reported as “high”. Further, at CYP2A13 (setting [1]), the dissociation constant (Kd) is 7 µM. In addition, on CYP2A6, the “2A6 Av. Kd” value is “No binding”.
As to `Clc1cccc(CN2CCOCC2)c1Cl` [Compound 7, 4-(2,3-dichlorobenzyl)morpholine], on CYP2A13, the “Selectivity 2A6 Kd/2A13 Kd” value came to 27. For the same compound, the dissociation constant Kd was 28.5 µM at CYP2A13 (setting [1]) and 788 µM on CYP2A6.

(Values after patent publication US8962624B2, “Morpholines as selective inhibitors of cytochrome P450 2A13” (University of Kansas, priority 2007, dated 2015).)
